Reference: the supplement of paper PMC10307832

Legend:
Test in all cases: relative viability (nuclei count vs DMSO), 5 days (fraction); higher = more cells survive
[1] = compound: CC1=CC(=NN1)NC2=CC(=NC(=N2)/C=C/C3=CC=CC=C3)N4CCN(CC4)C + C[C@]1(O)C[C@@H](c2nc(-c3ccc4ccc(-c5ccccc5)nc4c3)c3c(N)nccn32)C1 [Linsitinib] (partner 1 µM)
Summary of the method: (§1)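 After 5 days of treatment, lung cancer cells in 1536-well plates were fixed and stained in a single step (final 0.05% Triton X-100, 1% formaldehyde, 1 ug/ml Hoechst) and their nuclei counted on 4× images. Treatment had been applied by pin tool the day after seeding as one drug alone or as a fixed anchor-drug dose with five library-drug doses (not always all listed) in √10 steps. Relative viability is the nuclei count of treated wells divided by that of vehicle wells, and values are medians of duplicate plates.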

[2] = compound: CC1=CC(=NN1)NC2=CC(=NC(=N2)/C=C/C3=CC=CC=C3)N4CCN(CC4)C + CC(C)C[C@H](NC(=O)[C@H](Cc1ccccc1)NC(=O)c1cnccn1)B(O)O [Bortezomib] (partner 0.002 µM)
Summary of the method: as §1

Bortezomib + AZD7762 = compound: CC(C)C[C@H](NC(=O)[C@H](Cc1ccccc1)NC(=O)c1cnccn1)B(O)O [Bortezomib] + NC(=O)Nc1cc(-c2cccc(F)c2)sc1C(=O)N[C@H]1CCCNC1 [AZD7762] (partner 0.2 µM)
Summary of the method: as §1

Obatoclax + OSI-027 = compound: COC1=CC(c2cc3ccccc3[nH]2)=N/C1=C\c1[nH]c(C)cc1C [Obatoclax] + COc1cccc2cc(-c3nc([C@H]4CC[C@H](C(=O)O)CC4)n4ncnc(N)c34)[nH]c12 [OSI-027] (partner 0.5 µM)
Summary of the method: as §1

Cell Line	relative viability ([1]; first compound 0.08 µM)	relative viability ([1]; first compound 0.253 µM)	relative viability ([1]; first compound 0.8 µM)	relative viability ([1]; first compound 2.53 µM)	relative viability ([1]; first compound 8 µM)	relative viability ([2]; first compound 0.08 µM)	relative viability ([2]; first compound 0.253 µM)	relative viability ([2]; first compound 0.8 µM)	relative viability ([2]; first compound 2.53 µM)	relative viability ([2]; first compound 8 µM)	relative viability (Bortezomib + AZD7762; first compound 0.0002 µM)	relative viability (Bortezomib + AZD7762; first compound 0.000632 µM)	relative viability (Bortezomib + AZD7762; first compound 0.002 µM)	relative viability (Bortezomib + AZD7762; first compound 0.006325 µM)	relative viability (Bortezomib + AZD7762; first compound 0.02 µM)	relative viability (Obatoclax + OSI-027; first compound 0.01 µM)	relative viability (Obatoclax + OSI-027; first compound 0.03162 µM)	relative viability (Obatoclax + OSI-027; first compound 0.1 µM)	relative viability (Obatoclax + OSI-027; first compound 0.3162 µM)	relative viability (Obatoclax + OSI-027; first compound 1 µM)
201T	1.02	1.07	1	0.897	0.819	1.11	1.17	1.06	1.02	1.01	0.602	0.684	0.59	0.661	0.38	0.762	0.786	0.773	0.748	0.822
A-427	1.2	1.16	1.09	0.87	0.305	1.1	1.06	1.08	0.635	0.361	0.719	0.872	0.763	0.197	0.146	0.513	0.462	0.49	0.418	0.399
ABC-1	0.787	0.983	0.724	0.581	0.173	0.418	0.268	0.303	0.257	0.205		0.712	0.184	0.223	0.191	0.576	0.571	0.424	0.373	0.276
BEN	0.953	0.955	0.96	0.76	0.194	0.854	0.992	0.831	0.523	0.197	0.667	0.788	0.73	0.578	0.389	0.28	0.297		0.283	0.32
CAL-12T	0.756	0.69	0.979	0.49	0.214	0.979	0.952	0.645	0.268	0.164	0.608	0.596	0.602	0.576	0.271	0.62	0.609	0.829	0.138	0.128
ChaGo-K-1						0.994	1.2	1.15	0.285	0.241	0.847	0.716	0.886	0.691	0.164	0.694	0.549	0.522	0.512	0.63
EKVX	1.02	1.13	1.1	0.788	0.144	0.987	1.33	1.2	0.824	0.141	0.72	0.741	0.845	0.286	0.0785	0.708	0.74	0.797	0.561	0.667
EMC-BAC-2	0.821	0.91	0.77	0.594	0.204	1.05	1.1	1.01	0.813	0.135	1.09	1.04	1.04	0.573	0.436	0.413	0.382	0.297	0.332	0.299
EPLC-272H	1.11	1.32	1.06	0.675	0.367	0.952	0.914	0.956	0.531	0.279	0.188	0.163	1.2	0.153	0.0636	0.277	0.279	0.333	0.247	0.203
H3255	0.95	1.09	0.975	0.886	0.391	0.878	0.854	0.895	0.745	0.198	0.867		0.655	0.517	0.328	0.584	0.591	0.751	0.617	0.666
HARA	1.07	0.899	1.03	0.139	0.0705	0.971	1.31	1.09	0.352	0.109	0.257	0.311	0.577	0.178	0.0909	0.456	0.555	0.444	0.438	0.168
HCC-15	0.908	0.967	0.853	0.469	0.149	0.981	0.961	1	0.377	0.235	1.04	1.14	1.17	0.763	0.127	0.745	0.641	0.446	0.662	0.447
HCC-44	0.64	0.755	0.659	0.235	0.201	0.805	0.968	0.854	0.735	0.25	0.959	0.985	1.01	1.04	0.239	0.577	0.422	0.219	0.441	0.333
HCC-78	0.42	0.568	0.494	0.391	0.152	0.456	0.636	0.582	0.559	0.214	0.591	0.603	0.453	0.616	0.238	0.393	0.341	0.586	0.539	0.378
HCC-366	0.478	1.13	0.64	0.102	0.0084	0.993	1.18	1.03	0.0189	0.0155	0.221	0.331	0.401	0.37	0.0238	0.961	0.847	0.827	0.821	0.208
HCC-827	0.955	1.06	0.932	0.814	0.635	1.03	1.13	0.951	0.923	0.641	0.267	0.259	0.18	0.215	0.199	0.846	0.733	0.806	0.675	0.778
HOP-62	0.959	1.11	0.99	0.875	0.326	0.9	0.549	1.07	0.403	0.107	0.603	0.387	0.51	0.25	0.043	0.858	0.848	0.754	0.819	0.583

Cell Line	relative viability ([1]; first compound 0.08 µM)	relative viability ([1]; first compound 0.253 µM)	relative viability ([1]; first compound 0.8 µM)	relative viability ([1]; first compound 2.53 µM)	relative viability ([1]; first compound 8 µM)	relative viability ([2]; first compound 0.08 µM)	relative viability ([2]; first compound 0.253 µM)	relative viability ([2]; first compound 0.8 µM)	relative viability ([2]; first compound 2.53 µM)	relative viability ([2]; first compound 8 µM)	relative viability (Bortezomib + AZD7762; first compound 0.0002 µM)	relative viability (Bortezomib + AZD7762; first compound 0.000632 µM)	relative viability (Bortezomib + AZD7762; first compound 0.002 µM)	relative viability (Bortezomib + AZD7762; first compound 0.006325 µM)	relative viability (Bortezomib + AZD7762; first compound 0.02 µM)	relative viability (Obatoclax + OSI-027; first compound 0.01 µM)	relative viability (Obatoclax + OSI-027; first compound 0.03162 µM)	relative viability (Obatoclax + OSI-027; first compound 0.1 µM)	relative viability (Obatoclax + OSI-027; first compound 0.3162 µM)	relative viability (Obatoclax + OSI-027; first compound 1 µM)
LC-2-ad	0.732	0.803	0.473	0.122	0.0815	0.938	1.03	0.602	0.289	0.0902	0.828	0.787	0.878	0.271	0.182	0.838	0.838	0.529	0.724	0.655
LCLC-97TM1	0.185	0.205	0.204	0.165	0.112	0.742	0.57	0.77	0.114	0.0579	0.179		0.32	0.234	0.0966	0.606	0.553	0.693	0.347	0.52
LCLC-103H	1.16	1.09	1.13	1.12	0.809	0.997	1.19	1.08	0.877	0.675	0.816	0.769	0.764	0.748	0.201	0.462	0.462	0.404	0.457	0.541
LK-2	0.522	0.876	0.75	0.31	0.104						0.335	0.387	0.533	0.449	0.0966	0.261	0.214	0.225	0.256	0.192
LOU-NH91	0.953	1.01	0.98	0.775	0.501	0.403	0.472	0.537	0.474	0.358	0.729	0.68	0.361	0.348	0.339	0.727	0.719	0.566	0.714	0.683
LU99A	0.489	0.485	0.466	0.228	0.138	1.13	0.993	0.779	0.25	0.127	0.373	0.344	0.381	0.437	0.163	0.291	0.282	0.267	0.312	0.298
LXF-289	0.932	1.01	0.914	0.447	0.36	0.992	0.98	0.917	0.656	0.115	1.12	1.03	1.19	0.11	0.0936	0.78	0.77	0.68	0.765	0.691
NCI-H23	0.61	0.641	0.58	0.313	0.163	0.909	0.949	0.826	0.196	0.139	0.17		0.308	0.25	0.0879	0.632	0.62	0.626	0.503	0.243
NCI-H322M	0.89	0.965	0.895	0.515	0.323	1.14	1.24	1.17	1.1	0.258	0.539	0.636	0.654	0.385	0.393	0.531	0.338		0.462	0.386
NCI-H358	0.733	0.736	0.331	0.14	0.11						0.615	0.285	0.619	0.241	0.225	0.736	0.871	0.903	0.379	0.199
NCI-H441	0.483	0.584	0.444	0.196	0.0922	0.543	0.547	0.332	0.265	0.192	1.04	1.09	0.754	0.117	0.134	0.772	0.502	0.704	0.354	0.271
NCI-H460	0.668	0.869	0.539	0.0075	0.0036	1.07	1.1	1	0.0197	0.0105	0.55	0.706	0.724	0.672	0.044	0.697	0.703	0.635	0.0709	0.0443
NCI-H596	0.941	1.18	1.16	0.757	0.409	1.2	1.01	0.756	0.616	0.268	0.983	1.22	1.15	0.634	0.205	0.837	0.602	0.65	0.504	0.425
NCI-H1395	1	1.15	1.04	0.533	0.361						0.381	0.393	0.385	0.323	0.304	0.659	0.539	0.473	0.557	0.465
NCI-H1703	0.67	0.466	1.06	0.148	0.0677	0.261	0.319	0.236	0.174	0.117	0.117	0.102	0.133	0.178	0.137					
NCI-H1793	0.904	1.32	0.828	0.432	0.108						0.512		0.394	0.803	0.0834	0.293	0.286	0.248	0.275	0.298
NCI-H1944	1.21	1.4	1.23	0.86	0.348						0.508	0.511	0.637	0.295	0.166	0.457	0.383	0.381	0.415	0.448
